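Following 48 hours of exposure in 96-well plates, responses at five concentrations were used to interpolate endpoints linearly. Here, GI50 denotes the concentration required for 50% inhibition of growth. TGI marks complete inhibition of growth.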
What was measured:
Test in all cases: DTP human tumour cell line panel, 48 h
SK-OV-3 ovarian = test system: SK-OV-3 ovarian
SR leukemia = test system: SR leukemia
OVCAR-4 ovarian = test system: OVCAR-4 ovarian
HL-60(TB) leukemia = test system: HL-60(TB) leukemia
KM12 colon = test system: KM12 colon
K-562 leukemia = test system: K-562 leukemia
OVCAR-5 ovarian = test system: OVCAR-5 ovarian
SF-295 CNS = test system: SF-295 CNS
TK-10 renal = test system: TK-10 renal
A549 NSCLC = test system: A549 NSCLC
UO-31 renal = test system: UO-31 renal
MOLT-4 leukemia = test system: MOLT-4 leukemia
SNB-19 CNS = test system: SNB-19 CNS
HS 578T breast = test system: HS 578T breast
SF-539 CNS = test system: SF-539 CNS
SK-MEL-28 melanoma = test system: SK-MEL-28 melanoma
ACHN renal = test system: ACHN renal
SW-620 colon = test system: SW-620 colon
SK-MEL-5 melanoma = test system: SK-MEL-5 melanoma
NCI-H226 lung = test system: NCI-H226 lung
MDA-N = test system: MDA-N
MALME-3M melanoma = test system: MALME-3M melanoma
UACC-62 melanoma = test system: UACC-62 melanoma
M14 melanoma = test system: M14 melanoma
MDA-MB-231 breast = test system: MDA-MB-231 breast
SF-268 CNS = test system: SF-268 CNS
HOP-92 NSCLC = test system: HOP-92 NSCLC
EKVX NSCLC = test system: EKVX NSCLC
COLO 205 colon = test system: COLO 205 colon
SN12C renal = test system: SN12C renal
A498 renal = test system: A498 renal
HT29 colon = test system: HT29 colon
MCF7 breast = test system: MCF7 breast
SK-MEL-2 melanoma = test system: SK-MEL-2 melanoma
NCI-H460 lung = test system: NCI-H460 lung
RXF 393 renal = test system: RXF 393 renal
UACC-257 melanoma = test system: UACC-257 melanoma
CCRF-CEM leukemia = test system: CCRF-CEM leukemia
HOP-62 NSCLC = test system: HOP-62 NSCLC
CAKI-1 renal = test system: CAKI-1 renal
HCT-116 colon = test system: HCT-116 colon
NCI-H23 lung = test system: NCI-H23 lung
OVCAR-3 ovarian = test system: OVCAR-3 ovarian
NCI-H522 lung = test system: NCI-H522 lung
BT-549 breast = test system: BT-549 breast
DU-145 prostate = test system: DU-145 prostate
MDA-MB-435 = test system: MDA-MB-435
HCC-2998 colon = test system: HCC-2998 colon
SNB-75 CNS = test system: SNB-75 CNS
PC-3 prostate = test system: PC-3 prostate
LOX IMVI melanoma = test system: LOX IMVI melanoma
IGROV1 ovarian = test system: IGROV1 ovarian
U251 CNS = test system: U251 CNS
T-47D breast = test system: T-47D breast
NCI/ADR-RES ovarian = test system: NCI/ADR-RES ovarian
786-0 renal = test system: 786-0 renal
OVCAR-8 ovarian = test system: OVCAR-8 ovarian
HCT-15 colon = test system: HCT-15 colon
RPMI-8226 leukemia = test system: RPMI-8226 leukemia

For `C=CC(Br)(CBr)CCC(Cl)C(C)C` (centres undefined), the TGI (SK-OV-3 ovarian) was 18.6 µM, the TGI (SR leukemia) was 2.38 µM and the TGI (OVCAR-4 ovarian) was 3.29 µM. It also gave a TGI (HL-60(TB) leukemia) of 2.38 µM, a TGI (KM12 colon) of 2.95 µM and a TGI (K-562 leukemia) of 5.4 µM. The TGI (OVCAR-5 ovarian) was 5.03 µM, the TGI (SF-295 CNS) was 3.9 µM and the TGI (TK-10 renal) was 3.5 µM. For the same molecule, the TGI (A549 NSCLC) was 18 µM, the TGI (UO-31 renal) was 3.08 µM and the TGI (MOLT-4 leukemia) was 4.31 µM. The TGI (SNB-19 CNS) was 6.82 µM, the TGI (HS 578T breast) was 8.01 µM and the TGI (SF-539 CNS) was 3.84 µM. The TGI (SK-MEL-28 melanoma) was 2.98 µM, the TGI (ACHN renal) was 8.49 µM and the TGI (SW-620 colon) was 3.35 µM. It also gave a TGI (SK-MEL-5 melanoma) of 3.91 µM, a TGI (NCI-H226 lung) of 27.7 µM and a TGI (MDA-N) of 2.8 µM. The TGI (MALME-3M melanoma) was 3.71 µM, the TGI (UACC-62 melanoma) was 2.98 µM and the TGI (M14 melanoma) was 3.18 µM. It also gave a TGI (MDA-MB-231 breast) of 2.79 µM, a TGI (SF-268 CNS) of 3.07 µM and a TGI (HOP-92 NSCLC) of 4.72 µM. It also gave a TGI (EKVX NSCLC) of 21.8 µM, a TGI (COLO 205 colon) of 10.2 µM and a TGI (SN12C renal) of 3.19 µM. The TGI (A498 renal) was 27 µM, the TGI (HT29 colon) was 3.17 µM and the TGI (MCF7 breast) was 3.07 µM. The TGI (SK-MEL-2 melanoma) was 3.92 µM, the TGI (NCI-H460 lung) was 4.3 µM and the TGI (RXF 393 renal) was 3.31 µM. The TGI (UACC-257 melanoma) was 5.97 µM, the TGI (CCRF-CEM leukemia) was 2.64 µM and the TGI (HOP-62 NSCLC) was 3.2 µM. The TGI (CAKI-1 renal) was 7.52 µM, the TGI (HCT-116 colon) was 12 µM and the TGI (NCI-H23 lung) was 8.82 µM. It also gave a TGI (OVCAR-3 ovarian) of 4.13 µM, a TGI (NCI-H522 lung) of 2.8 µM and a TGI (BT-549 breast) of 2.96 µM. The TGI (DU-145 prostate) was 8.69 µM, the TGI (MDA-MB-435) was 3.5 µM and the TGI (HCC-2998 colon) was 1.52 µM. It also gave a TGI (SNB-75 CNS) of 3.04 µM, a TGI (PC-3 prostate) of 14.1 µM and a TGI (LOX IMVI melanoma) of 2.46 µM. The TGI (IGROV1 ovarian) was 8.43 µM and the TGI (U251 CNS) was 3.02 µM.
`COc1ccc2c(c1)CCC1C2CC[C@@]2(C)C1CC1=CC(COC(C)=O)C3C(=O)c4ccccc4C(=O)C3C12` (some centres undefined) was tested, and the GI50 (SK-OV-3 ovarian) was > 100 µM, the TGI (SK-OV-3 ovarian) was > 100 µM and the GI50 (SR leukemia) was > 100 µM. The TGI (SR leukemia) was > 100 µM, the GI50 (OVCAR-4 ovarian) was > 100 µM and the TGI (OVCAR-4 ovarian) was > 100 µM. The GI50 (HL-60(TB) leukemia) was 76.3 µM, the TGI (HL-60(TB) leukemia) was > 100 µM and the GI50 (KM12 colon) was > 100 µM. For the same molecule, the TGI (KM12 colon) was > 100 µM, the GI50 (K-562 leukemia) was 64.1 µM and the TGI (K-562 leukemia) was > 100 µM. For the same molecule, the GI50 (OVCAR-5 ovarian) was > 100 µM, the TGI (OVCAR-5 ovarian) was > 100 µM and the GI50 (SF-295 CNS) was > 100 µM. For the same molecule, the TGI (SF-295 CNS) was > 100 µM, the GI50 (TK-10 renal) was > 100 µM and the TGI (TK-10 renal) was > 100 µM. For the same molecule, the GI50 (A549 NSCLC) was > 100 µM, the TGI (A549 NSCLC) was > 100 µM and the GI50 (UO-31 renal) was 61.7 µM. For the same molecule, the TGI (UO-31 renal) was > 100 µM, the GI50 (MOLT-4 leukemia) was > 100 µM and the TGI (MOLT-4 leukemia) was > 100 µM. The GI50 (SNB-19 CNS) was > 100 µM, the TGI (SNB-19 CNS) was > 100 µM and the GI50 (HS 578T breast) was 89 µM. The TGI (HS 578T breast) was > 100 µM, the GI50 (SF-539 CNS) was > 100 µM and the TGI (SF-539 CNS) was > 100 µM. The GI50 (SK-MEL-28 melanoma) was > 100 µM, the TGI (SK-MEL-28 melanoma) was > 100 µM and the GI50 (T-47D breast) was 90.6 µM. For the same molecule, the TGI (T-47D breast) was > 100 µM, the GI50 (ACHN renal) was 47.9 µM and the TGI (ACHN renal) was > 100 µM. The GI50 (NCI/ADR-RES ovarian) was > 100 µM, the TGI (NCI/ADR-RES ovarian) was > 100 µM and the GI50 (SW-620 colon) was > 100 µM. The TGI (SW-620 colon) was > 100 µM, the GI50 (SK-MEL-5 melanoma) was > 100 µM and the TGI (SK-MEL-5 melanoma) was > 100 µM. The GI50 (NCI-H226 lung) was > 100 µM, the TGI (NCI-H226 lung) was > 100 µM and the GI50 (MALME-3M melanoma) was > 100 µM. For the same molecule, the TGI (MALME-3M melanoma) was > 100 µM, the GI50 (UACC-62 melanoma) was 47.3 µM and the TGI (UACC-62 melanoma) was > 100 µM. The GI50 (M14 melanoma) was > 100 µM, the TGI (M14 melanoma) was > 100 µM and the GI50 (MDA-MB-231 breast) was 52.4 µM. For the same molecule, the TGI (MDA-MB-231 breast) was > 100 µM, the GI50 (786-0 renal) was > 100 µM and the TGI (786-0 renal) was > 100 µM. For the same molecule, the GI50 (SF-268 CNS) was > 100 µM, the TGI (SF-268 CNS) was > 100 µM and the GI50 (HOP-92 NSCLC) was 1.43 µM. The TGI (HOP-92 NSCLC) was 49.7 µM, the GI50 (EKVX NSCLC) was > 100 µM and the TGI (EKVX NSCLC) was > 100 µM. The GI50 (COLO 205 colon) was > 100 µM, the TGI (COLO 205 colon) was > 100 µM and the GI50 (SN12C renal) was > 100 µM. The TGI (SN12C renal) was > 100 µM, the GI50 (A498 renal) was > 100 µM and the TGI (A498 renal) was > 100 µM. The GI50 (HT29 colon) was 94.9 µM, the TGI (HT29 colon) was > 100 µM and the GI50 (MCF7 breast) was > 100 µM. The TGI (MCF7 breast) was > 100 µM, the GI50 (SK-MEL-2 melanoma) was > 100 µM and the TGI (SK-MEL-2 melanoma) was > 100 µM. For the same molecule, the GI50 (NCI-H460 lung) was > 100 µM, the TGI (NCI-H460 lung) was > 100 µM and the GI50 (RXF 393 renal) was 59.8 µM. For the same molecule, the TGI (RXF 393 renal) was > 100 µM, the GI50 (UACC-257 melanoma) was > 100 µM and the TGI (UACC-257 melanoma) was > 100 µM. The GI50 (CCRF-CEM leukemia) was > 100 µM, the TGI (CCRF-CEM leukemia) was > 100 µM and the GI50 (HOP-62 NSCLC) was > 100 µM. For the same molecule, the TGI (HOP-62 NSCLC) was > 100 µM, the GI50 (CAKI-1 renal) was > 100 µM and the TGI (CAKI-1 renal) was > 100 µM. The GI50 (HCT-116 colon) was > 100 µM, the TGI (HCT-116 colon) was > 100 µM and the GI50 (NCI-H23 lung) was > 100 µM. For the same molecule, the TGI (NCI-H23 lung) was > 100 µM, the GI50 (OVCAR-3 ovarian) was > 100 µM and the TGI (OVCAR-3 ovarian) was > 100 µM. The GI50 (OVCAR-8 ovarian) was > 100 µM, the TGI (OVCAR-8 ovarian) was > 100 µM and the GI50 (HCT-15 colon) was > 100 µM. For the same molecule, the TGI (HCT-15 colon) was > 100 µM, the GI50 (NCI-H522 lung) was > 100 µM and the TGI (NCI-H522 lung) was > 100 µM. The GI50 (BT-549 breast) was > 100 µM, the TGI (BT-549 breast) was > 100 µM and the GI50 (DU-145 prostate) was > 100 µM. The TGI (DU-145 prostate) was > 100 µM, the GI50 (MDA-MB-435) was > 100 µM and the TGI (MDA-MB-435) was > 100 µM. The GI50 (HCC-2998 colon) was > 100 µM, the TGI (HCC-2998 colon) was > 100 µM and the GI50 (SNB-75 CNS) was 36.3 µM. For the same molecule, the TGI (SNB-75 CNS) was > 100 µM, the GI50 (RPMI-8226 leukemia) was 51.2 µM and the TGI (RPMI-8226 leukemia) was > 100 µM. For the same molecule, the GI50 (PC-3 prostate) was 48.4 µM, the TGI (PC-3 prostate) was > 100 µM and the GI50 (LOX IMVI melanoma) was > 100 µM. For the same molecule, the TGI (LOX IMVI melanoma) was > 100 µM, the GI50 (IGROV1 ovarian) was > 100 µM and the TGI (IGROV1 ovarian) was > 100 µM. For the same molecule, the GI50 (U251 CNS) was > 100 µM and the TGI (U251 CNS) was > 100 µM.

From PubChem BioAssay (NCI)
